Reference: the supplement of paper PMC9663587

Experiments:
Test in all cases: GRmax, 72 h; higher = less effect;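 further: breast cell lines in 384-well plates, nine doses across a 10^4 range, Dye Drop imaging of viable cells vs DMSO and time-zero plates, GR 0 means no net growth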
184A1 = test system: 184A1
BT474 = test system: BT474
CAL851 = test system: CAL851
EVSAT = test system: EVSAT
HCC1143 = test system: HCC1143
HCC1419 = test system: HCC1419
HCC38 = test system: HCC38
HCC70 = test system: HCC70
MCF12A = test system: MCF12A
MDAMB231 = test system: MDAMB231
SKBR3 = test system: SKBR3
UACC893 = test system: UACC893
ZR751 = test system: ZR751

| SMILES | GRmax, 72 h (184A1) [GR] | GRmax, 72 h (BT474) [GR] | GRmax, 72 h (CAL851) [GR] | GRmax, 72 h (EVSAT) [GR] | GRmax, 72 h (HCC1143) [GR] | GRmax, 72 h (HCC1419) [GR] | GRmax, 72 h (HCC38) [GR] | GRmax, 72 h (HCC70) [GR] | GRmax, 72 h (MCF12A) [GR] | GRmax, 72 h (MDAMB231) [GR] | GRmax, 72 h (SKBR3) [GR] | GRmax, 72 h (UACC893) [GR] | GRmax, 72 h (ZR751) [GR] | GRmax, 72 h (CAL851; main component drawn) [GR] | GRmax, 72 h (HCC1143; main component drawn) [GR] | GRmax, 72 h (HCC1419; main component drawn) [GR] | GRmax, 72 h (HCC38; main component drawn) [GR] | GRmax, 72 h (HCC70; main component drawn) [GR] | GRmax, 72 h (MDAMB231; main component drawn) [GR] | GRmax, 72 h (SKBR3; main component drawn) [GR] |
| --- | --- | --- | --- | --- | --- | --- | --- | --- | --- | --- | --- | --- | --- | --- | --- | --- | --- | --- | --- | --- |
| COc1ccc2c(c1)[C@]1(C[C@H]1c1ccc3c(/C=C/c4ccc(CN5C[C@@H](C)O[C@@H](C)C5)cc4)n[nH]c3c1)C(=O)N2 | 0.0075 | 0.18 | -0.11 | -0.0524 | 0.0518 | 0.32 | -0.403 | -0.31 | 0.0038 | 0.0653 | -0.0682 | 0.138 | 0.166 |  |  |  |  |  |  |  |
| COc1cccc(OCCCN)c1-c1cc(Nc2cnc(C#N)cn2)n[nH]1 | 0.529 | 0.715 | 0.0306 | 0.713 | -0.117 | 0.248 | -0.556 | -0.639 | -0.167 | -0.172 | -0.406 | 0.365 | 0.384 |  |  |  |  |  |  |  |
| CC(=O)Nc1cccc(-n2c(=O)n(C3CC3)c(=O)c3c(Nc4ccc(I)cc4F)n(C)c(=O)c(C)c32)c1 (max 1 µM) | 0.187 | 1.36 | 0.234 | 0.939 | -0.0225 | 0.426 | 0.185 | -0.0393 | -0.0287 | -0.178 | 0.683 | -0.0662 | 0.266 |  |  |  |  |  |  |  |
| CCc1cnn2c(NCc3ccc[n+]([O-])c3)cc(N3CCCC[C@H]3CCO)nc12 (max 1 µM) | -0.33 | -0.762 | -0.241 | 0.0834 | -0.253 | -0.476 | -0.442 | -0.909 | -0.327 | -0.42 | -0.621 | -0.641 | -0.406 |  |  |  |  |  |  |  |
| CC(=O)c1c(C)c2cnc(Nc3ccc(N4CCNCC4)cn3)nc2n(C2CCCC2)c1=O (max 3.162 µM) | 0.128 | 0.519 | 1.08 | 0.646 | 0.282 | 0.441 | 0.147 | 0.936 | 0.684 | 0.206 | 0.35 | 0.344 | 0.482 |  |  |  |  |  |  |  |
| CCc1cncnc1N1CCN(Cc2nc3ccc(C(F)(F)F)cc3[nH]2)CC1 (max 10 µM) | 1.02 | 0.508 | 1.02 | 0.711 | 0.739 | 0.349 | 0.976 | 0.935 | 0.964 | 0.854 | 0.734 | 0.351 | 0.867 |  |  |  |  |  |  |  |
| CCCCOc1c(C(=O)c2c(F)cc(C)cc2F)c[nH]c2nncc1-2 (max 10 µM) | -0.0413 | 0.503 | -0.012 | 0.279 | -0.0529 | 0.4 | -0.0129 | -0.164 | 0.338 | 0.227 | -0.0172 | 0.117 | 0.451 |  |  |  |  |  |  |  |
| CCN1CCN(Cc2ccc(Nc3ncc(F)c(-c4cc(F)c5nc(C)n(C(C)C)c5c4)n3)nc2)CC1 (max 10 µM) | -0.105 | 0.301 | -0.224 | -0.545 | -0.0787 | 0.228 | -0.327 | -0.826 | 0.393 | -0.487 | 0.143 | -0.22 | 0.311 |  |  |  |  |  |  |  |
| CNc1nc(-c2ccc3c(N)n[nH]c3c2)cc(N2C[C@@H](C(=O)NC3CCCCC3)CC[C@H]2C)n1 (max 10 µM) | 0.572 | 0.151 | 0.506 | -0.049 | 0.742 | 0.442 | 0.767 | 0.15 | 0.8 | 0.662 | 0.307 | 0.144 | 0.425 |  |  |  |  |  |  |  |
| CO[C@@H](C)Cn1c(=O)n(C)c2cnc3ccc(-c4cncc(C(C)(C)O)c4)cc3c21 (max 10 µM) | 0.0943 | -0.844 | -0.0445 | -0.384 | -0.203 | -0.769 | -0.0301 | -0.755 | 0.133 | -0.136 | -0.502 | -0.84 | -0.117 |  |  |  |  |  |  |  |
| Cc1nn(C)c(COc2ccc(N3CCN(S(=O)(=O)N(C)C)CC3)cc2)c1-c1cccc2c(CCCOc3cccc4ccccc34)c(C(=O)O)n(CCN3CCOCC3)c12 (max 10 µM) | -0.164 | 0.69 | 1.01 | 0.901 | 0.672 | 0.708 | 0.887 | 0.938 | 0.993 | 0.957 | 0.627 | 0.763 | 1.03 |  |  |  |  |  |  |  |
| Cc1c(N)nc([C@H](CC(N)=O)NC[C@H](N)C(N)=O)nc1C(=O)N[C@H](C(=O)N[C@H](C)[C@@H](O)[C@H](C)C(=O)N[C@H](C(=O)NCCc1nc(-c2nc(C(=O)NCCC[S+](C)C)cs2)cs1)[C@@H](C)O)[C@@H](OC1OC(CO)C(O)C(O)C1OC1OC(CO)C(O)C(OC(N)=O)C1O)c1cnc[nH]1 (some centres undefined) [Bleomycin] (max 10 µM) |  |  |  |  |  |  |  |  |  |  |  |  |  | -0.107 | -0.208 | 0.354 | -0.232 | -0.115 | 0.436 | 0.187 |
| N.N.[Cl][Pt][Cl] [Cisplatin] (max 10 µM) |  |  | 0.018 |  | 0.0754 | 0.0949 | -0.103 | -0.683 |  | 0.272 | 0.249 |  |  |  |  |  |  |  |  |  |
| CC[C@@]1(O)C(=O)OCc2c1cc1n(c2=O)Cc2cc3c(CN(C)C)c(O)ccc3nc2-1 [Topotecan] (max 10 µM) |  |  | -0.296 |  | -0.43 | -0.786 | -0.504 | -0.861 |  | -0.324 | -0.271 |  |  |  |  |  |  |  |  |  |
